Data published in patent US6759385B1, “Methods to treat undesirable immune responses” (Regents of the University of Minnesota, priority 1997, dated 2004).

How the values were obtained:
[1] = test system: EMG in B6 mice immunized with TAChR; assay: Subcutaneous tolerization, prevention protocol, EMG symptoms (Example IV); assay type: in vivo, mouse
Protocol: B6 mice (Jackson Laboratory, Bar Harbor, Me.) were injected s.c. with 100 μl of PBS containing increasing amounts of a pool of the same amount in weight of each of the three epitope peptides Tα150-169, Tα180-200 and Tα360-378 (‘peptide pool’), or 200 μg of Tα150-169 alone, or 100 μl of PBS containing 0.1% Triton X-100 and 10 μg of solubilized TAChR. Two different treatment schedules were used, referred to as prevention and post-priming protocols. In the prevention protocol, the peptides or solubilized TAChR were administered twice per week for 14 weeks, starting 2 weeks before the beginning of the immunization with TAChR. In the post-priming protocol, peptides or solubilized TAChR were administered twice per week for […], starting 8 weeks after the beginning of the TAChR immunization. Control mice received 100 μl of peptide-free PBS, following the same schedules.
Immunization 8-10 week old mice were immunized by s.c. injections, along the back and at the base of the tail, of TAChR (a total of 50 μg in 100 μl of PBS for each immunization) emulsified in an equal volume of CFA for the first injection, and IFA for the following two boosts. The mice were injected for a total of three times at 3-4 week intervals. At the end of the observation period, the mice received a third boost, and were sacrificed 5-7 days later. Control mice were injected with clean PBS in the appropriate adjuvant.
Evaluation of the symptoms of EMG The EMG symptoms were quantified using a forced exercise test sensitized by i.p. injection of a minute amount of pancuronium bromide (0.03 mg/kg) just before the test (Karachunski et al., 1995). The mouse hangs from a grid suspended above a soft padding, and the time it takes the mouse to fall three times (‘holding time’) was measured. The test is parametric, and gives a quantitative assessment of the mouse weakness. The myasthenic nature of the weakness was verified by injecting i.p. edrophonium chloride (Reversol, Organon, West Orange, N.J.), which is a cholinesterase inhibitor. […] The mice were tested without knowledge of their treatment.
The holding time of normal mice was 10.4±2.1 minutes (n=99). Mice with holding times of 8 minutes or longer were considered normal. Mice with holding times less than 6.2 minutes (the holding time of normal mice minus two SD) were considered to have fully developed EMG. Holding times of 6.2-8 minutes were considered to potentially indicate initial EMG. Normal or sham-immunized mice had occasionally holding times of 6.2-8 minutes, but never less than 6.2 minutes. Paralyzed mice and mice that died of respiratory paralysis are indicated as having holding time of 0 minutes.

spleen CD4+ T-cells = assay: Lymphocyte proliferation assay, spleen CD4+ T-cells (Example IV); assay type: cell-based, mouse
Protocol: Lymphocyte proliferation assay. Five to seven days after the last TAChR immunization, CD4^+ T-cells (Bellone et al., 1991a) were purified from the pooled spleens of three to four mice that had received identical treatments. Irradiated (3000 rad) spleen cells from non-immunized mice were diluted as needed in RPMI-1640 (Gibco, Grand Island, N.Y.) supplemented with 10% heat inactivated fetal calf serum (Gibco), 50 μM 2-mercapto-ethanol, 1 mM L-glutamine, 10 mM HEPES, 1 mM sodium pyruvate, 100 U/ml penicillin and 100 μg/ml streptomycin (culture medium) and used as APC. The spleen CD4^+ T-cells (1×10^6/ml in culture medium, 100×1/well) were seeded in triplicate in 96 flat-bottom well plates containing 100×1 of 5×10^6/ml APC. One of the following Ag was added: 10 μg/ml PHA (Sigma); 5 or 10 μg/ml TAChR; 5 or 10 μg/ml of the individual epitope peptides. The concentrations of TAChR and epitope peptides are in the saturating range of the dose dependence curve (Bellone et al., 1991a), and yielded consistent results. Controls were triplicate wells containing CD4^+ cells and APC without any Ag, or with the control peptide (10 μg/ml). After 4 days the cells were labeled for 16 hours with ^3H-thymidine (1 μCi per well, specific activity 6.7 Ci/mmol, Dupont, Boston, Mass.) and harvested (Titertek, Skatron, Sterling, Va.). The ^3H-thymidine incorporation was measured by liquid scintillation, and represented the results as stimulation indexes (S.I.: the ratio between the cpm obtained in the presence of a given stimulus, and the average cpm obtained for non-stimulated control cultures).

[2] = test system: serum anti-TAChR antibody; assay: Anti-AChR antibody assay by RIPA (Example I); assay type: in vivo, mouse
From the text: Sera was obtained from the mice after each clinical testing. […] The antibody concentration is expressed as μM precipitated ^125I-αBTX.

[3] = test system: EMG in IL-4 KO mice immunized with TAChR; assay: Transfer of CD4+ cells from peptide-treated B6 mice into IL-4 KO mice, EMG; assay type: in vivo, mouse; settings: cells three times, three TAChR immunizations, 14 weeks
Protocol: CD4^+ cells from wild type B6 mice that sniffed TACBR CD4^+ epitopes protect IL-4 KO R6 mice from development of EMG. Spleen CD4^+ cells were purified from wild type B6 mice that had sniffed a pool of the AChR a subunit peptide epitopes α50-169, α81-200 and α361-380, or peptide-free PBS (sham-treated). 10×10^6 CD4^+ cells from peptide-treated or sham-treated B6 mice to IL-4 KO B6 mice were administered i.v. (blue arrowhead in FIG. 25), just prior to a single immunization with TAChR (red arrowhead in FIG. 25). The strength of the mice was measured every 2 weeks, for 20 weeks after the TAChR immunization (FIG. 25). […] The lesser frequency of EMG as compared to the experiments described above is likely due to the use of a single immunizing injection of TAChR, or to variability in the susceptibility to EMG in different batch of IL-4 KO mice, similar to that described in other mouse strains.
All IL-4 KO mice treated with CD4^+ cells from sham-treated B6 donors developed EMG from week four onwards (FIG. 26). […] By week 10 (i.e., two weeks after the second TAChR immunization). […]

[4] = s.c. 200 μg/injection, second experiment

peptide Tα150-169: synthetic peptide corresponding to residues 150-169 of the TAChR α subunit (TYDGTKVSISPESDRPDLST; UniProt P02710 174-193, looked up, fragment)
mice with EMG at 8 weeks [1, 4]: One mouse
prevention of EMG [1, 4]: prevented EMG effectively
holding times compared with sham-tolerized groups ([1]; s.c. prevention protocol): significantly longer holding times
response of CD4+ cells from sham-tolerized mice to the peptide (spleen CD4+ T-cells; TAChR-immunized B6 mice, 5 or 10 μg/ml): responded consistently
response to Tα150-169 of tolerized mice (spleen CD4+ T-cells; s.c. prevention protocol): never responded
serum anti-TAChR antibody concentration compared with sham-treated ([2]; as early as 4 weeks after first TAChR immunization): significantly lower concentrations
serum anti-TAChR antibody concentration ([2]; at ten weeks, nasal protocol B, μM precipitated 125I-αBTX): 5.5 ± 1.5 µM
recipients that developed EMG [3]: Only one mouse
